Consider two molecules from patent publication US20240315986A1, “PHARMACEUTICAL COMPOSITION FOR TREATMENT OF MULTIPLE SYSTEM ATROPHY” (THE UNIVERSITY OF TOKYO, priority 2021, published 2024).

A short description of data set [1]: Phase 1 clinical trial: plasma concentration of drug in repeated oral administration for 14 days. It is filed as in vivo, human. The note with it: for Maximum plasma concentration of the MSA-01: 6 hours after repeated oral administration for 14 days (318 hour). The protocol: (Measurement of Plasma Concentration of Drug in Repeated Oral Administration for 14 Days)
The MSA-01 was subjected to the oral administration to healthy subjects at doses of 900 mg, 1,200 mg, and 1,500 mg repeatedly for 14 days. […] Maximum plasma concentrations of the MSA-01 detected were 10.24, 9.38, and 15.22 μg/mL in 900 mg, 1,200 mg, and 1,500 mg groups, respectively, in measurement after 6 hours from the repeated oral administration for 14 days (a value at 318 hour in FIG. 1). Published baselines of the plasma concentration of the ubiquinol are 0.87 and […] (% Reduced CoQ10: 98.9 and 85%) (Langsjoen, et al. Comparison study of plasma coenzyme Q10 levels in healthy subjects supplemented with ubiquinol versus ubiquinone. Clin Pharmacol Drug Dev. 2014; 3(1):13-17, Onur et al. Determination of the coenzyme Q10 status in a large Caucasian study population. Biofactors 2015; 41(4):211-21), and it is estimated that MSA-01 in the plasma increased about 20-fold from the baselines in the 1500 mg group in the test.

The conditions of data set [2]: cited from earlier work.
The test system of data set [3] is multiple system atrophy patients. As to the kind of experiment: Phase 2 clinical trial of MSA-01 in multiple system atrophy patients. It is filed as in vivo, human. On the procedure: For a group of 21 patients with COQ2 mutation and a group of 108 patients without COQ2 mutation, 61 patients were administered with the MSA-01 and 68 patients were administered with the placebo for each group. Among 129 patients in total in the patient groups, 99 patients had the MSA-C and 30 patients had the MSA-P. The 129 patients who were confirmed to be eligible during 4-week observation period were randomly assigned to be administered with the MSA-01 or the placebo once per day after breakfast (doses of the MSA-01 or the placebo ascend every 2 weeks to 300, 600, 900, 1,200, and 1,500 mg/day, FIG. 2), and evaluation items according to main evaluation items were measured at Weeks 12, 24, 36, and 48.
Changes (LS means) of UMSARS part 2 scores at Weeks 12, 24, 36, and 48 from the baseline (unified multiple-system atrophy rating scale part 2; Wenning G K, Tison F, Seppi K, et al. Development and validation of the Unified Multiple System Atrophy Rating Scale (UMSARS). Mov Disord [Internet] 2004; 19(12):1391-402) were evaluated. […] Results are shown in FIG. 3A (at Weeks 12, 24, 36, and 48) and FIG. 4 (at Week 48).
Changes (LS mean) of a UMSARS part 1 score (unified multiple-system atrophy rating scale part 1; Wenning G K, Tison F, Seppi K, et al. Development and validation of the Unified Multiple System Atrophy Rating Scale (UMSARS). Mov Disord [Internet] 2004; 19(12):1391-402), the Barthel index (Barthel index: Mahoney F I, Barthel D W. Functional evaluation: The Barthel index. Md State Med J [Internet] 1965; 14:61-5. Available from:http://www.ncbi.nlm.nih.gov/pubmed/14258950) (FIG. 3B), a SARA score (Schmitz-Huebsch T, du Montcel S T, Baliko L, Berciano J, Boesch S, Depondt C, Giunti P, Globas C, Infante J, Kang J S, Kremer B, Mariotti C, Melegh B, Pandolfo M, Rakowicz M, Ribai P, Rola R, Schoels L, Szymanski S, van de Warrenburg B P, Duerr A, Klockgether T, Fancellu R. Scale for the assessment and rating of ataxia:development of a new clinical scale. Neurology. 2006 Jun. 13; 66(11):1717-20. doi: 10.1212/01.wnl.0000219042.60538.92), and a 10-meter walking time (second) at Week 48 from baselines was evaluated (FIG. 4).

Another data set has as its system familial MSA patient. The note with it: cited from earlier work.
For data set [4] the following is noted: oral administration to a human; cited from earlier work.
For data set [5] the following is noted: intravenous administration to a rat; cited from earlier work.
Where [6] appears, read: first cited value (Langsjoen et al. 2014).
Where [7] appears, read: second cited value (Onur et al. 2015).
The mark [8] stands for this setting: Week 48, compared to the placebo group.

Like-named read-outs stand apart in the source and are kept apart here. A value given as a limit tells only on which side of the number the result lay.

With `COC1=C(OC)C(O)C(C/C=C(\C)CC/C=C(\C)CC/C=C(\C)CC/C=C(\C)CC/C=C(\C)CC/C=C(\C)CC/C=C(\C)CC/C=C(\C)CC/C=C(\C)CCC=C(C)C)=C(C)C1O` (stereo not shown) [MSA-01, 2-[(2E,6E,10E,14E,18E,22E,26E,30E,34E)-3,7,11,15,19,23,27,31,35,39-decamethyltetraconta-2,6,10,14,18,22,26,30,34,38-decaenyl]-5,6-dimethoxy-3-methylcyclohexa-2,5-diene-1,4-diol], the “Maximum plasma concentration of the MSA-01” value (from here on “Maximum plasma concentration”) in data set [1] (900 mg group) amounted to 10.24 µg/mL. In data set [1] (1,200 mg group), the “Maximum plasma concentration” value came to 9.38 µg/mL. Besides, the “increase of MSA-01 in the plasma from the baselines” value in data set [1] (1500 mg group, versus published baselines) is “about 20 fold”. Further, in data set [1] (1,500 mg group), the “Maximum plasma concentration” value came out at 15.22 µg/mL. In addition, the “plasma concentration of the MSA-01 until 24 hours after the administration” value in data set [1] (healthy subjects, oral 900, 1,200 and 1,500 mg, quantification limit printed 1 g/mL) is given as “extremely low”. The “time of repeated administration to reach steady state of plasma concentration” value in data set [1] (healthy subjects, repeated oral administration 900-1,500 mg) is “about 7 days”. Also, in data set [2] (setting [6]), the “% Reduced CoQ10” value was 98.9% and the Published baseline of the plasma concentration of the ubiquinol was 0.87 µg/mL. Further, in data set [2] (setting [7]), the “% Reduced CoQ10” value is recorded as 85% and the Published baseline of the plasma concentration of the ubiquinol was 0.66 µg/mL. In addition, in data set [3] (setting [8]), the “Change (LS mean) of 10-meter walking time from baseline” value is given as “effects were shown”, the “Change (LS mean) of SARA score from baseline” value is listed as “effects were shown” and the “Change (LS mean) of the Barthel index from baseline” value was “effects were shown”. Further, the “difference of LS mean change of UMSARS part 2 score, MSA-01 group versus placebo group” value in data set [3] (Week 48, 95% confidence interval −3.24 to −0.24, P=0.023) is given as −1.74. In data set [3] (Week 48, MSA-01 ascending to 1,500 mg/day oral once per day, placebo 7.14), the “Change (LS mean) of UMSARS part 2 score from the baseline” value is on record as 5.40. In addition, the clinical evaluation scale result in the data set on familial MSA patient (600 mg 2 weeks, 840 mg 2 weeks, 1,200 mg 2 weeks, once per day from a gastrostomy tube) is “no statistically significant changes”. Further, the “brain oxygen consumption rate” value in the data set with familial MSA patient (one familial MSA patient, ubiquinol above conventional dose) is on record as “improved brain oxygen consumption rate”.
For the molecule `COC1=C(OC)C(=O)C(C/C=C(\C)CC/C=C(\C)CC/C=C(\C)CC/C=C(\C)CC/C=C(\C)CC/C=C(\C)CC/C=C(\C)CC/C=C(\C)CC/C=C(\C)CCC=C(C)C)=C(C)C1=O` [ubiquinone], the “ubiquinol (reduced) present in plasma after ubiquinone administration” value in data set [4] and in data set [5] was no less than 95% in each case.
